Molecular target: T1, human NEP (Homo sapiens, UniProt P08473)
T1 construct: purchased R&D Systems, Minneapolis, Minn; 1182-ZN
Test: In vitro enzyme inhibition assay, inhibitor potency at human NEP
Format: biochemical
Conditions: pKi values at human NEP; recombinant human NEP, fluorogenic peptide substrate 10 μM, 37° C.
Method: The inhibitory activities of compounds at human and rat neprilysin (EC 3.4.24.11; NEP) and human angiotensin converting enzyme (ACE) were determined using in vitro assays as described below.
Recombinant human NEP and recombinant human ACE were obtained commercially (R&D Systems, Minneapolis, Minn., catalog numbers 1182-ZN and 929-ZN, respectively). The fluorogenic peptide substrate Mca-D-Arg-Arg-Leu-Dap-(Dnp)-OH (Medeiros et al. (1997) Braz. J. Med. Biol. Res. 30:1157-62; Anaspec, San Jose, Calif.) and Abz-Phe-Arg-Lys(Dnp)-Pro-OH (Araujo et al. (2000) Biochemistry 39:8519-8525; Bachem, Torrance, Calif.) were used in the NEP and ACE assays respectively.
The assays were performed in 384-well white opaque plates at 37° C. using the fluorogenic peptide substrates at a concentration of 10 μM in Assay Buffer (NEP: 50 mM HEPES, pH 7.5, 100 mM NaCl, 0.01% polyethylene glycol sorbitan monolaurate (Tween-20), 10 μM ZnSO4; ACE: 50 mM HEPES, pH 7.5, 100 mM NaCl, 0.01% Tween-20, 1 μM ZnSO4).
Test compounds were assayed over the range of concentrations from […] to 20 μM. Test compounds were added to the enzymes and incubated for 30 minute at 37° C. prior to initiating the reaction by the addition of substrate. Reactions were terminated after 20 minutes of incubation at 37° C. by the addition of glacial acetic acid to a final concentration of 3.6% (v/v).
Plates were read on a fluorometer with excitation and emission wavelengths set to 320 nm and 405 nm, respectively. Inhibition constants were obtained by nonlinear regression of the data using the equation (GraphPad Software, Inc., San Diego, Calif.): v=v0/[1+(I/K′)] where v is the reaction rate, v0 is the uninhibited reaction rate, I is the inhibitor concentration and K′ is the apparent inhibition constant.
Compounds of the invention were tested in this assay and found to have pKi values at human NEP as follows.

T1 sequence (P08473 whole entry): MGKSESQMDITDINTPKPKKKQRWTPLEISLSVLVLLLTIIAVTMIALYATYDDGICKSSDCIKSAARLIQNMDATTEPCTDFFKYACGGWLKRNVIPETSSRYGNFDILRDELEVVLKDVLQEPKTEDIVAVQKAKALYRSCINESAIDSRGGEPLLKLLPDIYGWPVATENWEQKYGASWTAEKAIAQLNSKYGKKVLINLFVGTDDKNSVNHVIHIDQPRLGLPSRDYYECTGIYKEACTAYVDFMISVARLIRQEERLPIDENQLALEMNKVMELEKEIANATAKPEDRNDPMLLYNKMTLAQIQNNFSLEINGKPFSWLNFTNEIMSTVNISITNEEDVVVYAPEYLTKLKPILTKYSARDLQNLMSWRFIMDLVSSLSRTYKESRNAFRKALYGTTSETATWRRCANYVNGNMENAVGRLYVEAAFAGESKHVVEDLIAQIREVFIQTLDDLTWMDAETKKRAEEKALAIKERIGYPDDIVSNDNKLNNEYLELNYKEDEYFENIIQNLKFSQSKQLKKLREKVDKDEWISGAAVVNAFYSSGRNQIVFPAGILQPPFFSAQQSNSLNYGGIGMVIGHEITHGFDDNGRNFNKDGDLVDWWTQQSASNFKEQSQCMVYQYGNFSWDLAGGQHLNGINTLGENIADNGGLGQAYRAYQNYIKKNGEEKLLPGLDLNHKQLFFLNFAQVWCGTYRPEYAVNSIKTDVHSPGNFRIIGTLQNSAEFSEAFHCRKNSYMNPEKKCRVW

Structure (SMILES) | Ki [nM]
O=C(N[C@H](Cc1ccccc1Cl)[C@H](O)C(=O)O)c1ccc2nn[nH]c2c1 [Example 2-29, (2S,3R)-3-[(3H-Benzotriazole-5-carbonyl)-amino]-4-(2-chloro-phenyl)-2-hydroxy-butyric acid] | 12.6 to 100
O=C(O)c1ccc(C(=O)N[C@H](Cc2ccccc2Cl)[C@@H](O)C(=O)O)o1 [Example 2-32, 5-[(1R,2R)-2-Carboxy-1-(2-chloro-benzyl)-2-hydroxy-ethylcarbamoyl]-furan-2-carboxylic acid] | 12.6 to 100
O=C(N[C@H](Cc1ccccc1Cl)[C@@H](O)C(=O)O)c1ccc2ncc(Br)n2c1 [Example 2-33, (2R,3R)-3-[(3-Bromo-imidazo[1,2-a]pyridine-6-carbonyl)-amino]-4-(2-chloro-phenyl)-2-hydroxy-butyric acid] | 12.6 to 100
O=C(N[C@H](Cc1ccccc1Cl)[C@@H](O)C(=O)O)c1cnc(O)nc1 [Example 2-35, (2R,3R)-4-(2-Chloro-phenyl)-2-hydroxy-3-[(2-hydroxy-pyrimidine-5-carbonyl)-amino]-butyric acid] | ≤ 1
O=C(N[C@H](Cc1ccccc1Cl)[C@@H](O)C(=O)O)c1cnc2nn[nH]c2c1 [Example 2-37, (2R,3R)-4-(2-Chloro-phenyl)-2-hydroxy-3-[(1H-[1,2,3]triazolo[4,5-b]pyridine-6-carbonyl)-amino]-butyric acid] | 1.26 to 10
O=C(N[C@H](Cc1ccccc1C(F)(F)F)[C@@H](O)C(=O)O)c1cnc2[nH]nnc2c1 [Example 3, (2R,3R)-2-Hydroxy-3-[(3H-[1,2,3]triazolo[4,5-b]pyridine-6-carbonyl)-amino]-4-(2-trifluoromethyl-phenyl)-butyric acid] | 1.26 to 10
O=C(N[C@H](Cc1ccccc1)[C@@H](O)C(=O)O)c1ccc2c(c1)N1CCCC1C(=O)N2 (stereo partly drawn) [Example 5-1, (2R,3R)-2-Hydroxy-3-[(4-oxo-1,2,3,3a,4,5-hexahydro-pyrrolo[1,2-a]quinoxaline-8-carbonyl)-amino]-4-phenyl-butyric acid] | 12.6 to 100
CCCc1nc2c(C)cc(C(=O)N[C@H](Cc3ccccc3)[C@@H](O)C(=O)O)cc2n1Cc1ccc(Br)nc1 [Example 5-2, (2R,3R)-3-{[3-(6-Bromo-pyridin-3-ylmethyl)-7-methyl-2-propyl-3H-benzoimidazole-5-carbonyl]-amino}-2-hydroxy-4-phenyl-butyric acid] | 12.6 to 100

Continued, values first:

Ki [nM] | Structure (SMILES)
1.26 to 10 | O=C(N[C@H](Cc1ccccc1Cl)[C@H](O)C(=O)O)c1cc(Cl)c2nn[nH]c2c1 [Example 2-28, (2S,3R)-3-[(7-Chloro-3H-benzotriazole-5-carbonyl)-amino]-4-(2-chloro-phenyl)-2-hydroxy-butyric acid]
12.6 to 100 | Cc1cc(C(=O)N[C@H](Cc2ccccc2Cl)[C@H](O)C(=O)O)cc2[nH]nnc12 [Example 2-30, (2S,3R)-4-(2-Chloro-phenyl)-2-hydroxy-3-[(7-methyl-3H-benzotriazole-5-carbonyl)-amino]-butyric acid]
12.6 to 100 | O=C(N[C@H](Cc1ccccc1Cl)[C@@H](O)C(=O)O)c1cc(C(=O)O)c2[nH]nnc2c1 [Example 2-31, 6-[(1R,2R)-2-Carboxy-1-(2-chloro-benzyl)-2-hydroxy-ethylcarbamoyl]-3H-benzotriazole-4-carboxylic acid]
12.6 to 100 | O=C(N[C@H](Cc1ccccc1Cl)[C@@H](O)C(=O)O)c1cnc(O)cn1 [Example 2-34, (2R,3R)-4-(2-Chloro-phenyl)-2-hydroxy-3-[(5-hydroxy-pyrazine-2-carbonyl)-amino]-butyric acid]
12.6 to 100 | O=C(N[C@H](Cc1ccccc1Cl)[C@@H](O)C(=O)O)c1cnc2[nH]cnc2c1 [Example 2-36, (2R,3R)-4-(2-Chloro-phenyl)-2-hydroxy-3-[(3H-imidazo[4,5-b]pyridine-6-carbonyl)-amino]-butyric acid]
12.6 to 100 | O=C1CCC(C(=O)N[C@H](Cc2ccccc2Cl)[C@@H](O)C(=O)O)=NN1 [Example 2-39, (2R,3R)-4-(2-Chloro-phenyl)-2-hydroxy-3-[(6-oxo-1,4,5,6-tetrahydro-pyridazine-3-carbonyl)-amino]-butyric acid]

From patent US9771337B2, “Neprilysin inhibitors” (THERAVANCE BIOPHARMA R&D IP, LLC, priority 2011, dated 2017)
